Here are results for four compounds from US20230001017A1, “FORMULATION FOR DELIVERY OF LUBRICIN GENE” (University of lowa Research Foundation, priority 2019, published 2023).

“Also recorded” adds a separate entry of the source.

Series [1] is described as follows: Drug content of PLGA pellets. Type of series: physicochemical. Here is the method: Drug-loaded PLGA pellets were made by the hot-melt extrusion method (Leelakanok et al., […]; Danyuo et al., 2017). The goal was to load the maximum amount of drug possible in the pellets, which varies depending on the physical and chemical properties of the drugs and their behavior during the hot melt extrusion process. The maximum doses carried in PLGA pellets were 120±3.6 μg SSZ/mg pellet, 126±5 μg BAPN/mg pellet, and 250±3.2 μg CHP/mg pellet. In vitro tests confirmed the drugs and pellets were not cytotoxic (FIG. 40).
To determine the drug content of the pellets, the pellets were individually dissolved in chloroform (500 μL) and then mixed with 1 mL water to let the active ingredient migrate to the aqueous phase for at least 30 minutes. Drug elution profiles were characterized in vitro prior to implantation. Elution was measured by incubation of the pellets in phosphate buffered saline (PBS) at 37° C. in a shaking incubator set to 300 rpm (FIGS. 30B, C, and D) (Leelakanok et al., 2018; Danyuo et al., 2017). At each time point, PBS was removed from the pellets and replaced with fresh PBS. The amount of BAPN released at each time point was determined using a Fluorescamine assay followed by fluorescent spectroscopy (excitation wavelength: 390 nm, emission wavelength: 475 nm). The amount of CHP released at each time point was determined by hydroxyproline assay with spectrophotometric detection at 560 nm. The amount of SSZ released at each time point was determined using UV spectroscopy at 359 nm.

Another series has as its system stifle joint stiffness. Nature of the series: Flexion-extension testing, rabbit stifle joint immobilization model. The conditions noted are these: 8 weeks after pellet implantation; for Maximum torque (joint stiffness): versus blank pellet control. Type of series: in vivo. The text has this: (§1) The minimal number of animals was used to assess the specific aims of this study. Eight-rabbits were included in each of the treatment groups. […] Non-immobilized, untreated (normal) joints were included to provide normative baselines for joint mobility and histologic outcomes. The study included this normal group, as well as an immobilized group implanted with blank pellets (control), and immobilized groups treated with BAPN-, CHP-, or SSZ-loaded pellets. Joints were immobilized for 8 weeks to establish arthrofibrosis/capsule contracture as previously described (Nesterenko et al., 2009). Kirschner-wires (K-wires) were then removed and the various pellets implanted in the joint. After another 8 weeks the animals were euthanized, and the joints immediately tested for stiffness in extension and anterior-posterior (A-P) laxity. Capsule tissues were harvested for histology to evaluate in situ α-SMA expression and intima thickness, and for in vitro quantitation of cellular contractile activity and α-SMA expression.
Flexion-extension testing of normal and fibrotic joints was performed immediately after euthanasia, when limbs were disarticulated at the hip, stripped of skin and muscle, and fastened securely to a custom testing device equipped with a stepper motor and a 10 N load cell and controlled by a computer with a custom LabVIEW (National Instruments)-based program (FIG. 38) (Hildebrand et al., 2004; Nesterenko et al., 2009). Starting at 10° of extension, the limbs were driven to 170° of extension, and then returned to the starting position at a rotational velocity of 5°/s while continuously recording load and position. The starting extension angle was measured using a digital protractor (Barry Wixey Development) (FIG. 39). The peak torque at maximum extension (N-m) and dissipated energy (mJ) were derived as measures of joint stiffness. The increased hysteresis in immobilized joints arises from posterior capsule stiffening, which restricts extension, but not flexion.

In series [2] the test system is joint capsule fibroblasts (JCFs). Nature of the series: Collagen gel compaction assay with JCFs from treated joints. Type of series: cell-based, rabbit. The conditions noted are these: for Maximum compaction at 48 hours: cells from immobilized treated joints versus control joints; for Compaction rate: first 12 hours of incubation, versus control. Here is the method: (§2) Capsule tissues were harvested and transferred to a T-75 flask with 15 mL of Dulbecco's Modified Eagle Medium/Ham's Formula-12 Nutrient Mixture (DMEM/F-12) media containing 10% fetal bovine serum (FBS), 1% Penn Strep, and 1% Amphotericin B, and incubated at 37° C. in a 5% O2, 5% CO2 atmosphere for about 5 days to allow cells to migrate out of the tissue and adhere to the plate. The JCFs were cultured until confluent (about 2 weeks) before analysis.
Collagen gel compaction assays were used to determine the contractile activity of JCFs isolated from variously treated rabbits (Yuda & McCulloch, 2018). Collagen gels were produced by combining 10×PBS containing phenol red, 1N NaOH, and rat tail type I collagen (2 mg/mL) (Invitrogen), and JCFs to give a final cell concentration of 1×10^6 cells/mL. Five hundred μL of the collagen gel mixture was added to each well in a 24-well plate and allowed to polymerize for 30 minutes in an incubator. After 30 minutes, 500 μL of DMEM containing 10% FBS and 50 μg/mL ascorbic acid was added to each well. The plates were then incubated for 24 hours to allow the cells to generate a state of isometric tension. After 24 hours, the medium was replaced with 500 μL of fresh DMEM containing 10% FBS and ascorbic acid. After 48 hours, the gels were detached from the walls of the wells using a sterile spatula to allow the cells to freely compact the gels. Images were acquired over the next 48 hours, and the changes in gel cross sectional area were measured with ImageJ.
DNA assays were used to control for well-well variations in cell numbers that could affect the rate and extent of gel compaction. After 48 hours of compaction, the medium was aspirated and the gels were washed with PBS thrice. Five hundred μL of 0.25 mg/mL collagenase was added and the plates incubated at 37° C. overnight. Cell pellets were collected by centrifuging at 500 g for 10 minutes. The supernatants were discarded and the pellets frozen at −80° C. overnight. After thawing at room temperature, the pellets were suspended in 1.0 mL of RNAse/DNAse-free water and then sonicated for 30 minutes. DNA concentrations were measured using 0.2 μg/mL of Hoechst 33342 in 10×TNE buffer (100 mM Tris, 2.0 M NaCl, and 10 mM EDTA at pH 7.4) with excitation and emission wavelengths at 360 nm and 460 nm respectively with calf thymus DNA as a standard. A calibration curve was generated to relate DNA concentration to the number of JCFs in the cultures.

In another series the test system is α-SMA expression in JCFs. The series is described as follows: α-SMA immunostaining of JCFs from treated joints. The format is cell-based, rabbit. The settings on record: versus control. Here is the method: as §2
JCFs were seeded at a density of 10,000 cells per […] on UV-sterilized glass coverslips. After 48 hours, the medium was discarded and the samples were washed with Dulbecco's PBS (DPBS). The samples were fixed in 4% paraformaldehyde for 1 hour and then rinsed thrice with DPBS. The cells were then permeabilized with 0.5% Triton X for 5 minutes at room temperature and blocked with 10% goat serum for 30 minutes. The samples were then incubated with an anti-α-SMA mouse monoclonal antibody (Abcam) at a 1:100 dilution in DPBS overnight at 4° C. After washing in DPBS, the cells were blocked with goat serum for 30 minutes at 37° C. and then incubated with a fluorophore-conjugated goat anti-mouse IgG secondary antibody (488 excitation) (Life Technologies) at a 1:100 dilution for 30 minutes at 37° C. Cells were then washed thrice with DPBS, incubated with phalloidin at a 1:100 dilution for 30 minutes at 37° C., and then mounted with 4′,6-diamidino-2-phenylindole (DAPI)-containing mounting medium. Stained sections were imaged using an Olympus FV1000 confocal microscope. Percent positive α-SMA (immunostained/DAPI-stained×100) was evaluated in at least 4 microscope fields using ImageJ.

In series [3] the test system is fibrosis in a rat stifle joint immobilization model. The settings on record: in vivo; cited from earlier work.
For a further series, the system named is normal wound healing. The settings on record: therapeutic dose levels; cited from earlier work.
The next series deals with ACL function. Nature of the series: Drawer test (A-P laxity), rabbit stifle joint immobilization model. Type of series: in vivo. The conditions noted are these: 8 weeks after pellet implantation; versus control.
Source text: as §1, with “After another 8 weeks the animals were euthanized, and the joints immediately tested for stiffness in extension and anterior-posterior (A-P) laxity.” left out
After flexion-extension testing, a custom loading fixture was used to assess sagittal-plane laxity (drawer test), which is related to cruciate ligament integrity (Tochigi et al., 2011). […] Force and displacement data were continuously recorded through the sequence of tests, which consisted of three cycles to adjust leg placement for neutral starting position, followed by three cycles of data collection. […]

The next series deals with synovial intima. Nature of the series: Capsule histology, synovial intimal thickness. The format is in vivo, rabbit. The settings on record: immobilization-induced increase, versus control.
Source text: as §1
Portions of the posterior capsule were fixed in 10% neutral buffered formalin, and then processed for paraffin histology. […] Stained slides were imaged using an Olympus VS110 Virtual Microscope System, and intimal thickness was quantified at 5 random areas in the synovial intima using ImageJ.

Series [4] deals with PTOA after intra-articular fracture. The series is described as follows: Porcine intra-articular fracture (IAF) model. The settings on record: 6 months post-IAF; intra-articular injection, 2.5 mM; anatomically-reduced joints. The format is in vivo, Yucatan minipig. The source says: Yucatan Minipig Intra-articular Fracture Model. The Yucatan minipig model was developed to create an IAF of a reproducible severity without arthrotomy (Goetz et al., 2015). Under general anesthesia, an antero-medial approach to the hock joint, which is analogous to the human ankle joint, is made without disrupting the joint capsule. […] A stress-rising saw cut is made through the anterior tibial cortex, stopping 1-2 mm proximal to the subchondral bone. Two drill holes are made proximal to the saw cut into which a plate with a ball-joint is press fit. This ball joint interfaces with the instrumented sled on our impaction pendulum to rigidly support the tibia. The pendulum delivers a 40 J impact to the impaction tripod, driving the talus against the distal tibia causing a fracture of the distal tibia that is guided by the stress-rising saw cut. The result is a fracture fragment that consists of the anterior third of the distal tibial articular surface which is fixed using standard open reduction and internal fixation (ORIF) techniques (FIG. 12). […] In this study it is determined if lubricin gene therapy is an effective adjunct to amobarbital at the later time point, with or without residual incongruity; thus, all animals in this study survive to 12 months post-fracture. […]

Series [5] shares this test system. The settings on record: 12 months post-IAF; cited from earlier work.

As for `N#CCCN` [BAPN, beta-amino propionitrile], in [1], the “Maximum dose carried in PLGA pellets” value was 126±5 μg BAPN/mg pellet. Moreover, in the series with stifle joint stiffness, the “Maximum torque (joint stiffness)” value is “Neither BAPN nor CHP had significant effects”. In addition, in series [2], the “Maximum compaction at 48 hours” value was “significantly lower” and the Compaction rate entry was “somewhat lower than control”. Further, the “Maximum compaction at 48 hours” value in [2] (listed as beta-aminopropionitrile) was “significantly inhibited this effect”. Also, the “Percent α-SMA positive” value in the series with α-SMA expression in JCFs is on record as “nearly significantly lower”. Moreover, the Development of fibrosis entry in series [3] is recorded as “prevented the development of fibrosis”. For the same compound, the “Effect on normal wound healing” value in the series with normal wound healing is reported as “Neither CHP nor BAPN retarded normal wound healing”.

Regarding `O=C(O)c1cc(/N=N/c2ccc(S(=O)(=O)Nc3ccccn3)cc2)ccc1O` [SSZ, Sulfasalazine], the “Maximum dose carried in PLGA pellets” value in series [1] is 120±3.6 μg SSZ/mg pellet. For the same compound, the “Maximum torque (joint stiffness)” value is reported as “significantly less stiff than controls” in the series on stifle joint stiffness and “reduced stiffness” with stifle joint stiffness (listed as sulfasalazine). In addition, the Dissipated energy result in the series on stifle joint stiffness (versus control) is listed as “significantly reduced”. Moreover, the “Anterior drawer stiffness / A-P laxity” value in the series with ACL function is recorded as “significantly stiffer than controls”. The results for the Synovial intimal thickness result in the series on synovial intima and in the series on synovial intima (listed as sulfasalazine) were “inhibited significantly” and “significantly lower than control”, respectively. Also, the “Maximum compaction at 48 hours” value in [2] is listed as “significantly lower”; in series [2] (listed as Sulfasalazine), “significantly inhibited this effect”. Besides, the Compaction rate entry in [2] is recorded as “significantly lower compaction rate”. For the same compound, the “Percent α-SMA positive” value with α-SMA expression in JCFs is “significantly lower than control”; in the series on α-SMA expression in JCFs (listed as sulfasalazine), “significantly higher in control versus normal (p=0.0021) and versus sulfasalazine”.

`CCC1(CCC(C)C)C(=O)NC(=O)NC1=O` [amobarbital]: in [4], the “PTOA progression at 6 months” value is on record as “dramatically forestalled the progression of PTOA; also recorded: highly effective in preventing changes”. Moreover, the “PTOA progression at 12 months” value in [5] is “moderate degenerative changes were observed; also recorded: less effective”.

Regarding `O=C(O)[C@@H]1C[C@@H](O)CN1` (relative stereo) [CHP, Cis-hydroxyproline], the “Maximum dose carried in PLGA pellets” value in series [1] was 250±3.2 μg CHP/mg pellet. Besides, the “Maximum torque (joint stiffness)” value in the series with stifle joint stiffness is recorded as “Neither BAPN nor CHP had significant effects”. Further, in series [2], the Compaction rate entry is reported as “somewhat lower than control”. For the same compound, the “Percent α-SMA positive” value in the series with α-SMA expression in JCFs was “only slightly lower than control”. Also, the “Effect on normal wound healing” value in the series on normal wound healing was “Neither CHP nor BAPN retarded normal wound healing”.
